Values joined by “and” are separate entries in the source; they are usually repeats but may differ in a detail not shown here. Equal values may be shown once. Read-outs that look alike come from different tables or passages of the source. Starred links: 1 amine or outer side, 2 acyl side, 3 side chain; linkers in the order of their positions; H or OH if unused. Positions of bridges follow the written chain, without caps; N, C: chain ends. Non-standard residues stand in square brackets, D forms with d. Residues, ends and D or L forms follow the SMILES beside them. Chains are numbered I, II in the order given. Actinocin(9to1) = Cc1c2oc3c(C)ccc(C(=O)[*:1])c3nc-2c(C(=O)[*:2])c(N)c1=O; NMeV = CN[C@H](C(=O)O)C(C)C; Sar = CNCC(=O)O
Experiments:
MCF-7 cells [1] = tested on: MCF-7 cells
[2] = tested on: all-trans-RA catabolism in MCF-7 cells; assay: Inhibition of induced all-trans-RA catabolism in MCF-7 cells; assay type: cell-based, human; conditions: for IC50: MCF-7 cells preincubated 24 h with 10^-6 M all-trans-RA, 10^-7 M [3H]all-trans-RA as substrate, mean ± s.d., three experiments in duplicate; for Activity in inhibiting all-trans-RA catabolism, times less than all-trans-RA: relative to all-trans-RA, from IC50 values of Table 2; for Inhibition of induced all-trans-RA catabolism, in words: induced MCF-7 cells, 10^-7 M [3H]all-trans-RA, CH55 up to 10 μM
rat liver homogenates = conditions: cited from earlier work
[3] = tested on: rat Dunning R3327G tumour homogenates; conditions: cited from earlier work
BA-HAN-IC = BA-HAN-IC cells; ref Ramp et al, 1994; cited from earlier work
MCF-7 cells [4] = assay: Viability of MCF-7 cells after preincubation (trypan blue); conditions: 24 h preincubation, varying concentrations, results not shown
HL-60 leukaemia cells = tested on: HL-60 leukaemia cells; parameters: method as in Bollag and Holdener, 1992; Matsushima et al, 1992; conditions: ref Bollag and Holdener, 1992, Matsushima et al; cited from earlier work
[5] = tested on: RbTE cells and HL-60 leukaemia cells; parameters: method as in Jetten et al, 1987; conditions: ref Jetten et al, 1987; cited from earlier work
[6] = tested on: F9 embryonal carcinoma cells; parameters: method as in Willams and Napoli, 1985; conditions: ref Willams and Napoli, 1985; cited from earlier work
RARs = tested on: RARs; parameters: method as in Duell et al, 1992; conditions: ref Duell et al, 1992; cited from earlier work
[7] = tested on: all-trans-RA catabolism in MCF-7 cells; assay: Induction of all-trans-RA catabolism in MCF-7 cells by preincubation with retinoids (microcolumn assay); conditions: for RA catabolism (% of control): 24 h preincubation
CRABP-II mRNA = assay: Northern blotting for CRABP mRNA in MCF-7 cells; assay type: cell-based, human
Method: (§1) British Journal of Cancer (1997) 75(8), 1098-1104 ? […] Quantification was performed by optical densitometric scanning. […] Data are shown as mean ? s.d.

[8] = tested on: all-trans-RA catabolism in MCF-7 cells; assay: Enzyme characteristics of induced all-trans-RA catabolism (Michaelis-Menten, Lineweaver-Burk); assay type: cell-based, human; conditions: MCF-7 cells preincubated 24 h with 10^-6 M all-trans-RA; substrate 5 x 10^-9 to 10^-6 M [3H]all-trans-RA; overall formation of polar metabolites; read-out: Estimated Km value of induced all-trans-RA catabolism
Method: as §1

hamster liver microsomes = conditions: read-out: Km value of all-trans-RA catabolism, cited from earlier work
[9] = ref Krekels et al, 1995, read-out: IC50 value for inhibition of all-trans-RA catabolism
[10] = read-out: Km value of all-trans-RA catabolism

SMILES: CC1=C(/C=C/C(C)=C/C=C/C(C)=C\C(=O)O)C(C)(C)CCC1=O [4-keto-13-cis-RA, 4-keto-13-cis-retinoic acid]
- Viability of the cells after preincubation (MCF-7 cells [1]): did not decrease viability
- IC50 [2]: 6600 nM
- Activity in inhibiting all-trans-RA catabolism, times less than all-trans-RA [2]: about 50 times

SMILES: Clc1cccc(C(c2ccc3[nH]cnc3c2)n2ccnc2)c1.Clc1cccc(C(c2ccc3[nH]cnc3c2)n2ccnc2)c1.O=C(O)/C=C/C(=O)O.O=C(O)/C=C/C(=O)O.O=C(O)/C=C/C(=O)O (stereo not drawn) [liarozole-fumarate, 5-[3(chlorophenyl)(lH-imidazole-l-yl)methyl]-IH-benzimidazole (E)-2-butenedioate(2:3)]
- IC50 (rat liver homogenates; [9]): 140 nM
- Inhibition of induced all-trans-RA catabolism, in words [2]: potency similar to that of all-trans-RA
- IC50 [3, 9]: 260 nM

SMILES: CC1=C(/C=C/C(C)=C/C=C/C(C)=C/C(=O)O)C(C)(C)CCC1=O [4-keto-all-trans-RA, 4-Keto-all-trans-retinoic acid]
- Viability of the cells after preincubation (MCF-7 cells [1]): did not decrease viability
- IC50 [2]: 370 nM
- Inhibition of induced all-trans-RA catabolism, in words [2]: activity similar to that of all-trans-RA
- Differentiation-inducing activity relative to all-trans-RA (BA-HAN-IC): significantly weaker

SMILES: CC1=C(/C=C/C(C)=C\C=C\C(C)=C\C(=O)O)C(C)(C)CCC1 [9-cis-RA, 9-cis-retinoic acid]
- IC50 ([2]; Homo sapiens, MCF7): 1890 nM
- Activity in inhibiting all-trans-RA catabolism, times less than all-trans-RA [2]: about 15 times
- Viability of the cells after preincubation (MCF-7 cells [4]): did not decrease viability
- Potency in inducing differentiation relative to all-trans-RA (HL-60 leukaemia cells): equipotent to 10-fold as active

SMILES: CC1=C(/C=C/C(C)=C/C=C/C(C)=C/C(=O)O)C(C)(C)CCC1O (stereo not drawn) [4-hydroxy-all-trans-RA]
- Differentiation-inducing activity relative to all-trans-RA (BA-HAN-IC): significantly weaker

SMILES: CC1=C(/C=C/C(C)=C/C=C/C(C)=C\C(=O)O)C(C)(C)CCC1 [13-cis-RA, 13-cis-retinoic acid]
- Activity in inhibiting all-trans-RA catabolism, times less than all-trans-RA [2]: 5 times
- Viability of the cells after preincubation (MCF-7 cells [4]): did not decrease viability
- Potency in inducing differentiation relative to all-trans-RA (HL-60 leukaemia cells): equipotent

SMILES: CC(C)(C)c1cc(C(=O)/C=C/c2ccc(C(=O)O)cc2)cc(C(C)(C)C)c1 [CH55, (E)-4-[3-(3,5-di-tert-butylphenyl)-3-oxo-l-propenyl]benzoic acid]
- Biological activity, times higher than that of all-trans-RA [5]: 20-25 times
- IC50 [2]: > 10000 nM
- Inhibition of induced all-trans-RA catabolism, in words [2]: did not inhibit
- Viability of the cells after preincubation (MCF-7 cells [4]): did not decrease viability

SMILES: CC1=C(/C=C/C(C)=C/C=C/C(C)=C/CO)C(C)(C)CCC1 [retinol, Retinol]
- Activity in inducing differentiation relative to all-trans-RA [6]: approximately 10%
- Inhibition of induced all-trans-RA catabolism, in words [2]: least active natural compound
- Viability of the cells after preincubation (MCF-7 cells [4]): did not decrease viability

SMILES: CC1=C(/C=C/C(C)=C/C=C/C(C)=C/C(=O)O)C(C)(C)CCC1=O [4-keto-RA]
- Potency in stimulating gene transcription, times less potent than RA (RARs): 2-10 times

SMILES: CC1=C(/C=C/C(C)=C/C=C/C(C)=C/C(=O)O)C(C)(C)CCC1O (centres unmarked) [4-hydroxy-RA]
- Potency in stimulating gene transcription, times less potent than RA (RARs): 2-10 times

SMILES: Cc1c2oc3c(C)ccc(C(=O)N[C@@H]4C(=O)N[C@H](C(C)C)C(=O)N5CCC[C@H]5C(=O)N(C)CC(=O)N(C)[C@@H](C(C)C)C(=O)O[C@@H]4C)c3nc-2c(C(=O)N[C@@H]2C(=O)N[C@H](C(C)C)C(=O)N3CCC[C@H]3C(=O)N(C)CC(=O)N(C)[C@@H](C(C)C)C(=O)O[C@@H]2C)c(N)c1=O [actinomycin D] (I: T[dV]P[Sar][NMeV] / II: T[dV]P[Sar][NMeV]; ester I:1-I:C, II:1-II:C; linker I:N-II:N via Actinocin(9to1))
- RA catabolism (% of control) ([7]; actinomycin D 0.1 μg ml-1 with 10^-6 M all-trans-RA): 14.3 % of control
- RA catabolism (% of control) ([7]; actinomycin D 1 μg ml-1 with 10^-6 M all-trans-RA): 11.7 % of control

SMILES: CC1=C(/C=C/C(C)=C/C=C/C(C)=C/C(=O)O)C(C)(C)CCC1 [all-trans-RA, All-trans-retinoic acid]
- Km (rat liver homogenates; [10]): 4.3 µM
- Preincubation period to maximal induction ([7]; 10^-6 M all-trans-RA): 16 h and 16 to 24 h
- Time for induction to decrease to the constitutive level after wash-out ([7]; 16 h induction with 10^-6 M all-trans-RA, then wash-out): ≤ 24 h
- Onset of induction detectable ([7]; preincubation with all-trans-RA): ≤ 60 min
- Reduction in CRABP-II mRNA (CRABP-II mRNA; 10^-7 M all-trans-RA, 24 h): 20%
- Expression of CRABP-I mRNA after treatment (CRABP-II mRNA; CRABP-I mRNA, results not shown): remained low
- Km [8]: 0.33 µM
- Inhibition of induced all-trans-RA catabolism, in words [2]: most active compound
- Viability of the cells after preincubation (MCF-7 cells [4]): did not decrease viability
- Km [3, 10]: 1.7 µM
- Km (hamster liver microsomes; ref Roberts et al (1980)): 1.1 µM
- Km (hamster liver microsomes; ref Van Wauwe et al (1988)): 12.5 µM

— publication PMC2222791, “Induction of the oxidative catabolism of retinoid acid in MCF-7 cells” (British Journal of Cancer, 1997)
